{
  "source": "patent US10676514B2",
  "about": "“CDCA1-derived peptide and vaccine containing same” (ONCOTHERAPY SCIENCE, INC., priority 2014, dated 2020)",
  "key": {"peptide-pulsed C1R-A33": {"tested_on": "peptide-pulsed C1R-A33", "test": "IFN-gamma ELISA of CTL lines and CTL clones (HLA-A*3303)", "assay_type": "cell-based, human", "description": "(§1) CTLs were propagated in culture using methods similar to those disclosed by Riddell et al. (Walter E A et al., N Engl J Med 1995, 333(16): 1038-44; Riddell S R et al., Nat Med 1996, 2(2): 216-23). The CTLs were co-cultured in a total of 25 ml AIM-V medium containing 5% AS (AIM-V/5% AS) and 40 ng/ml anti-CD3 antibody with two types of Mitomycin C-treated human B lymphoblastoid cell lines at 5×10^6 cells/flask. One day after beginning of the culturing, 120 IU/ml IL-2 was added to the culture. On days 5, 8 and 11, a fresh AIM-V/5% AS medium containing 30 IU/ml IL-2 was added to the culture (Tanaka H et al., Br J Cancer 2001, 84(1): 94-9; Umano Y et al., Br J Cancer 2001, 84(8): 1052-7; Uchida N et al., Clin Cancer Res 2004, 10(24): 8577-86; Suda T et al., Cancer Sci 2006, 97(5): 411-9; Watanabe T et al., Cancer Sci 2005, 96(8): 498-506).\n(§2) Dilution of CTLs was carried out to make 0.3, 1 and 3 cells/well in 96 round-bottomed microtiter plates (Nalge Nunc International). The CTLs were co-cultured with two types of Mitomycin C-treated human B lymphoblastoid cell lines at 1×10^4 cells/well in a total of 150 micro-l/well AIM-V/5% AS medium with 30 ng/ml anti-CD3 antibody and 125 IU/ml IL-2. Ten days later, IL-2 was added to the medium at 50 micro-l/well to reach a final concentration of 125 IU/ml. On day 14, the CTL activity was tested, and the CTL clones were propagated using the same method as described above (Uchida N et al., Clin Cancer Res 2004, 10(24): 8577-86; Suda T et al., Cancer Sci 2006, 97(5): 411-9; Watanabe T et al., Cancer Sci 2005, 96(8): 498-506).\n(§3) Specifically, peptide-pulsed C1R-A33 (1×10^4 cells/well) was prepared as the stimulator cell. The induced CTLs, i.e., CTL lines and CTL clones, were used as the responder cell. The IFN-gamma ELISPOT assay and IFN-gamma ELISA were performed according to the manufacturer's manual."}, "[1]": {"tested_on": "COS7 cells transfected with CDCA1 and HLA-A*3303", "test": "Specific CTL activity against target cells expressing CDCA1 and HLA-A*3303", "assay_type": "cell-based, African green monkey", "conditions": "listed as CDCA1-A33-9-43", "from_the_text": "A cDNA encoding the open-reading frame of a target gene or HLA-A*3303 was amplified by PCR. The PCR-amplified product was cloned into an expression vector. Either or both of the target gene-expressing vector and the HLA-A*3303-expressing vector were transfected into COS7, which is a cell line negative for the target gene and HLA, using Lipofectamine 2000 (Invitrogen) following the manufacturer's recommended protocol. Two days after transfection, the transfected cells were harvested using versene (Invitrogen), and used as the target cell for CTL activity assay (5×10^4 cells/well).\nThe CTL clone established against CDCA1-A33-9-43 (SEQ ID NO: 27) was investigated for its ability to recognize target cells expressing CDCA1 and the HLA-A*3303 molecule. COS7 cells transfected with both full-length CDCA1 and the HLA-A*3303 gene (a specific model of target cells expressing CDCA1 and the HLA-A*3303 gene) were prepared as the target cell. COS7 cells transfected with either full-length CDCA1 or HLA-A*3303 were prepared as the control."}, "[2]": {"tested_on": "peptide-pulsed C1R-A33 cells", "test": "IFN-gamma ELISPOT assay of peptide-induced CTLs (HLA-A*3303)", "assay_type": "cell-based, human", "conditions": "CTLs induced from HLA-A*3303-positive donors, peptide-pulsed C1R-A33 vs control", "from_the_text": "(§4) Monocyte-derived dendritic cells (DCs) were used as the antigen-presenting cell to induce a cytotoxic T lymphocyte (CTL) response against peptides presented on human leukocyte antigens (HLAs). As described in the other sections, DCs were generated in vitro (Nakahara S et al., Cancer Res 2003, 63(14): 4112-8). Specifically, peripheral-blood mononuclear cells isolated from healthy volunteers (HLA-A*3303-positive) with the Ficoll-Paque plus solution (Pharmacia) were separated by attaching to plastic tissue culture dishes (Becton Dickinson) and concentrated as a monocyte fraction. The monocyte-concentrated population was cultured in the presence of 1000 IU/ml granulocyte macrophage colony-stimulating factor (R&D System) and 1000 IU/ml interleukin(IL)-4 (R&D System) in an AIM-V medium (Invitrogen) containing 2% heat-inactivated autologous serum (AS). After seven days of culturing, the cytokine-induced DCs were pulsed with 20 micro-g/ml each of the synthesized peptides in an AIM-V medium at 37 degrees C. for three hours in the presence of 3 micro-g/ml beta 2-microglobulin. The generated cells appeared to express on their cell surface DC-associated molecules such as CD80, CD83, CD86 and HLA class II (data not shown). Next, these peptide-pulsed DCs were inactivated by X-ray irradiation (20 Gy), and mixed in a 1:20 ratio with autologous CD8^+ T cells obtained by positive selection using the CD8 Positive Isolation Kit (Dynal). These culture products were seeded in a 48-well plate (Corning). Each well was made to contain 1.5×10^4 peptide-pulsed DCs, 3×10^5 CD8^+ T cells and 10 ng/ml IL-7 (R&D System) in 0.5 ml of the AIM-V/2% AS medium. Three days later, these culture products were added with a final concentration of 20 IU/ml IL-2 (CHIRON). On day 7 and day 14, T cells were further stimulated with peptide-pulsed autologous DCs. The DCs were prepared every time by the same method as above. On day 21, after the third peptide stimulation, CTLs were examined against the peptide-pulsed CIR-A33 cell by a human interferon (IFN)-gamma enzyme-linked immunospot (ELISPOT) assay (Tanaka H et al., Br J Cancer 2001, 84(1): 94-9; Umano Y et al., Br J Cancer 2001, 84(8): 1052-7; Uchida N et al., Clin Cancer Res 2004, 10(24): 8577-86; Suda T et al., Cancer Sci 2006, 97(5): 411-9; Watanabe T et al., Cancer Sci 2005, 96(8): 498-506).\nas §3"}, "peptide-pulsed C1R-A03 [3]": {"tested_on": "peptide-pulsed C1R-A03", "test": "IFN-gamma ELISA of CTL lines and CTL clones (HLA-A*0301)", "assay_type": "cell-based, human", "description": "as §1, §2\n(§5) Specifically, peptide-pulsed C1R-A03 (1×10^4 cells/well) was prepared as the stimulator cell. The induced CTLs, i.e., CTL lines and CTL clones, were used as the responder cell. The IFN-gamma ELISPOT assay and IFN-gamma ELISA were performed according to the manufacturer's manual."}, "peptide-pulsed C1R-A03 [4]": {"tested_on": "peptide-pulsed C1R-A03", "test": "IFN-gamma ELISPOT assay of peptide-induced CTLs (HLA-A*0301)", "assay_type": "cell-based, human", "conditions": "CTLs induced from HLA-A*0301-positive donors, peptide-pulsed C1R-A03 vs control", "from_the_text": "as §4, with “(HLA-A*0301-positive)” for “(HLA-A*3303-positive)”, “C1R-A03” for “CIR-A33 cell”\nas §5"}, "[5]": {"tested_on": "peptide-pulsed C1R-A11 cells", "test": "IFN-gamma ELISPOT assay of peptide-induced CTLs (HLA-A*1101)", "assay_type": "cell-based, human", "conditions": "CTLs induced from HLA-A*1101-positive donors, peptide-pulsed C1R-A11 vs control, listed as CDCA1-A11-9-343", "from_the_text": "as §4, with “(HLA-A*1101-positive)” for “(HLA-A*3303-positive)”, “C1R-A11 cells” for “CIR-A33 cell”\nSpecifically, peptide-pulsed C1R-A11 (1×10^4 cells/well) was prepared as the stimulator cell. The induced CTLs, i.e., CTL lines and CTL clones, were used as the responder cell. The IFN-gamma ELISPOT assay and IFN-gamma ELISA were performed according to the manufacturer's manual."}},
  "note": "“Also recorded” adds a separate entry of the source.",
  "data": [
    {"sequence": "EVLHMIYMR (a peptide derived from CDCA1) [SEQ ID NO: 27]", "values": [
      {"measurement": "IFN-gamma production of CTL clones", "setting": "peptide-pulsed C1R-A33; CTL clones by limiting dilution, peptide-pulsed C1R-A33, listed as CDCA1-A33-9-43", "result": "Potent IFN-gamma production"},
      {"measurement": "IFN-gamma production of CTL lines", "setting": "peptide-pulsed C1R-A33; CTL lines, peptide-pulsed vs non-pulsed target cells, HLA-A*3303", "result": "potent IFN-gamma production"},
      {"measurement": "specific CTL activity of CTL clone", "setting": "[1]; COS7 cells transfected with both CDCA1 and HLA-A*3303", "result": "specific CTL activity; also recorded: potent CTL activity"},
      {"measurement": "specific CTL activity of CTL clone against control cells", "setting": "[1]; COS7 cells transfected with either full-length CDCA1 or HLA-A*3303", "result": "a significant specific CTL activity was not shown; also recorded: a significant specific CTL activity was not detected"},
      {"measurement": "peptide-specific CTL activity (IFN-gamma production)", "setting": "[2]", "result": "potent IFN-gamma production"}
    ]},
    {"sequence": "KMKDTVQKLK (a peptide derived from CDCA1) [SEQ ID NO: 47]", "values": [
      {"measurement": "IFN-gamma production of CTL clones", "setting": "peptide-pulsed C1R-A03 [3]; CTL clones by limiting dilution, peptide-pulsed C1R-A03, listed as CDCA1-A03-10-257", "result": "Potent IFN-gamma production"},
      {"measurement": "IFN-gamma production of CTL lines", "setting": "peptide-pulsed C1R-A03 [3]; CTL lines, peptide-pulsed vs non-pulsed target cells, HLA-A*0301", "result": "potent IFN-gamma production"},
      {"measurement": "peptide-specific CTL activity (IFN-gamma production)", "setting": "peptide-pulsed C1R-A03 [4]; listed as CDCA1-A03-10-257", "result": "potent IFN-gamma production; also recorded: significant specific CTL activity"}
    ]},
    {"sequence": "RLMIVKKEK (a peptide derived from CDCA1) [SEQ ID NO: 10]", "values": [
      {"measurement": "peptide-specific CTL activity (IFN-gamma production)", "setting": "peptide-pulsed C1R-A03 [4]; listed as CDCA1-A03-9-343", "result": "no specific IFN-gamma production; also recorded: specific IFN-gamma production was not observed"},
      {"measurement": "peptide-specific CTL activity (IFN-gamma production)", "setting": "[5]", "result": "potent IFN-gamma production; also recorded: significant specific CTL activity"}
    ]}
  ]
}
